Data reported in ChEMBL document CHEMBL4602687, “Dual Binding to Orthosteric and Allosteric Sites Enhances the Anticancer Activity of a TRAP1-Targeting Drug” (J Med Chem, 2020).

How the values were obtained:
Heat shock protein HSP90 [1] = biological target: T1, Heat shock protein HSP90 (Homo sapiens, UniProt P07900+P08238); experiment: Inhibition of HSP90 in human PC3 cells at 5 uM measured after 2 to 12 hrs by Western blot analysis; format: cell-based; conditions: pc-3, 5 µM
[2] = biological target: T2, Heat shock protein 75 kDa, mitochondrial (Homo sapiens, UniProt Q12931); experiment: Inhibition of PU-H71-FITC binding to recombinant wild-type human TRAP1 expressed in Escherichia coli BL21 (DE3) measured after 2 hrs by fluorescence polarization assay
T2 sequence (Q12931 whole entry): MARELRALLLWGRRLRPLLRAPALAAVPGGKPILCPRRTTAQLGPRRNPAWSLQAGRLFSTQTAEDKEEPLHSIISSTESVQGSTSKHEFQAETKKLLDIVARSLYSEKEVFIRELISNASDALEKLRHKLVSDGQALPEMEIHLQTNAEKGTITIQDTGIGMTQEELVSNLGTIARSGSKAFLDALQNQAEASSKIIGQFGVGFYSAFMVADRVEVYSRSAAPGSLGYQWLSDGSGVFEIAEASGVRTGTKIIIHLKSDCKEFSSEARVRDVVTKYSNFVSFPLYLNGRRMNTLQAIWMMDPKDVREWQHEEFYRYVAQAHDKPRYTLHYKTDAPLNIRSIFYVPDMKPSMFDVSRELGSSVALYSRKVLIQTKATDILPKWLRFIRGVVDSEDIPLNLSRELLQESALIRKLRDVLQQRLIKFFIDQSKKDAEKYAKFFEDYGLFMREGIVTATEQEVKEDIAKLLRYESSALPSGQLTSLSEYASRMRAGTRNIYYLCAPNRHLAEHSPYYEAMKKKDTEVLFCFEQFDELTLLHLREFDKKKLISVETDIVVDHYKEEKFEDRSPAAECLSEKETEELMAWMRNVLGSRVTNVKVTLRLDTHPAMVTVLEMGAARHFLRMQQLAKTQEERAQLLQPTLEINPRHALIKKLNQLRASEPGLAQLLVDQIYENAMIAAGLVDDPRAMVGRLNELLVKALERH

Heat shock protein HSP90 [3] = biological target: T1, Heat shock protein HSP90; experiment: Inhibition of HSP90 in human PC3 cells assessed as change in AKT expression at 5 uM measured after 2 to 12 hrs by Western blot analysis; format: cell-based; conditions: pc-3, 5 µM
Hepatocyte = experiment: Cytotoxicity against mouse hepatocytes assessed as reduction in cell viability up to 3 uM measured after 24 hrs by MTT assay; format: cell-based
Heat shock protein HSP90 [4] = biological target: T1, Heat shock protein HSP90; experiment: Inhibition of HSP90 in human PC3 cells assessed as change in Chk1 expression at 5 uM measured after 2 to 12 hrs by Western blot analysis; format: cell-based; conditions: pc-3, 5 µM
Heat shock protein HSP90 [5] = biological target: T1, Heat shock protein HSP90; experiment: Inhibition of HSP90 in human PC3 cells assessed as change in Cdk4 expression at 5 uM measured after 2 to 12 hrs by Western blot analysis; format: cell-based; conditions: pc-3, 5 µM
Heat shock protein HSP90 [6] = biological target: T1, Heat shock protein HSP90; experiment: Inhibition of HSP90 in human PC3 cells assessed as change in Hsp70 expression at 5 uM measured after 2 to 12 hrs by Western blot analysis; format: cell-based; conditions: pc-3, 5 µM

| Structure (SMILES) | inhibition (INH) (Heat shock protein HSP90 [1]) | IC50 [2] | inhibition (INH) (Heat shock protein HSP90 [3]) | Activity (Hepatocyte) | inhibition (INH) (Heat shock protein HSP90 [4]) | inhibition (INH) (Heat shock protein HSP90 [5]) | inhibition (INH) (Heat shock protein HSP90 [6]) |
| --- | --- | --- | --- | --- | --- | --- | --- |
| Nc1ncnc2c1nc(Sc1cc3c(cc1I)OCO3)n2CCCCCCCCCC[P+](c1ccccc1)(c1ccccc1)c1ccccc1.[Br-] | Not Active | 1.88 µM | Not Active | Non-Toxic | Not Active | Not Active | Not Active |
| Nc1ncnc2c1nc(Sc1cc3c(cc1I)OCO3)n2CCCCCCCC[P+](c1ccccc1)(c1ccccc1)c1ccccc1 |  | 0.872 µM |  |  |  |  |  |
| Nc1ncnc2c1nc(Sc1cc3c(cc1I)OCO3)n2CCCCCC[P+](c1ccccc1)(c1ccccc1)c1ccccc1 |  | 0.794 µM |  |  |  |  |  |
